Literature values in patent US6110927A, “Loratadine for use as an antiarrhythmic” (Pfizer Inc, priority 1999, dated 2000).

Tests used:
[1] = test system: hKv1.5 channels; conditions: only at concentrations much higher than therapeutic plasma levels in man
[2] = both with and without a history of similar arrhythmia
[3] = clinical studies

CCOC(=O)N1CCC(=C2c3ccc(Cl)cc3CCc3cccnc32)CC1 [loratadine, ethyl 4-(8-chloro-5,6-dihydro-11-H-benzo [5,6]cyclohepta-[1,2-b]-pyridin-11-ylidene)-1-piperidinecarboxylate]
block of hKv1.5 channels [1]: blocked hKv1.5 channels in a concentration-, voltage-, time- and use-dependent manner | reported cases of atrial fibrillation with loratadine use [2]: at least 2 cases

CN(CCOc1ccc(NS(C)(=O)=O)cc1)CCc1ccc(NS(C)(=O)=O)cc1 [dofetilide]
efficacy in treating patients with atrial arrhythmias [3]: effective in treating patients with atrial arrhythmias
